Measurements: the NIST ThermoML archive (doi:10.1021/je800633a)

Key:
[1] = refractive index (Na D-line) (dimensionless); settings: 298.15 K; 101.33 kPa; Liquid; Standard Abbe refractometry
[2] = 81.5 kPa, Liquid; for viscosity: Capillary tube (Ostwald / Ubbelohde) method
[3] = refractive index (Na D-line) (dimensionless); xn = mol fraction of the nth substance listed; settings: 303.15 K, 81.5 kPa, Liquid
[4] = xn = mol fraction of the nth substance listed; settings: 81.5 kPa, Liquid; for viscosity: Capillary tube (Ostwald / Ubbelohde) method

CC(O)CO (stereo not drawn) [1,2-propanediol]
Settings	refractive index
[1]	1.4323

[2]
Settings	mass density [kg/m3]	viscosity [mPa·s]
298.15 K	1032.61	–
303.15 K	1028.9	33.88
308.15 K	1025.16	–

CCO [ethanol]
Settings	refractive index
[1]	1.3595

[2]
Settings	mass density [kg/m3]	viscosity [mPa·s]
298.15 K	785.18	–
303.15 K	780.87	0.994
308.15 K	776.52	–

CO [methanol] + CCO
[3]
Settings	refractive index
x1 = 0.0417	1.3567
x1 = 0.1476	1.3541
x1 = 0.2214	1.3522
x1 = 0.2952	1.3502
x1 = 0.3644	1.3485
x1 = 0.4488	1.3462
x1 = 0.529	1.3437
x1 = 0.5995	1.3415
x1 = 0.6859	1.3385
x1 = 0.7442	1.3363
x1 = 0.832	1.3328
x1 = 0.9166	1.3286

[4], 303.15 K
Settings	viscosity [mPa·s]
x1 = 0.0417	0.968
x1 = 0.1476	0.906
x1 = 0.2214	0.865
x1 = 0.2952	0.828
x1 = 0.3644	0.793
x1 = 0.4488	0.753
x1 = 0.529	0.717
x1 = 0.5995	0.685
x1 = 0.6859	0.648
x1 = 0.7442	0.624
x1 = 0.832	0.588
x1 = 0.9166	0.556

CC(O)CO (stereo not drawn) [1,2-propanediol] + CCO
[3]
Settings	refractive index
x2 = 0.0738	1.426
x2 = 0.1285	1.4233
x2 = 0.2099	1.4187
x2 = 0.2725	1.4153
x2 = 0.3701	1.4093
x2 = 0.4389	1.4052
x2 = 0.5193	1.3998
x2 = 0.5871	1.3946
x2 = 0.678	1.3876
x2 = 0.7554	1.3817
x2 = 0.8185	1.3765
x2 = 0.9171	1.3672

[4]
Settings	mass density, 298.15 K [kg/m3]	mass density, 303.15 K [kg/m3]	mass density, 308.15 K [kg/m3]	viscosity, 303.15 K [mPa·s]
x2 = 0.0492	1023.64	1019.91	1016.16	–
x2 = 0.0738	–	–	–	25.01
x2 = 0.122	1009.9	1006.14	1002.31	–
x2 = 0.1285	–	–	–	20.47
x2 = 0.2072	993.05	989.22	985.36	–
x2 = 0.2099	–	–	–	15.2
x2 = 0.2706	979.89	976.03	972.12	–
x2 = 0.2725	–	–	–	12.14
x2 = 0.3633	959.86	955.92	951.97	–
x2 = 0.3701	–	–	–	8.55
x2 = 0.4389	–	–	–	6.68
x2 = 0.4478	940.7	936.73	932.7	–
x2 = 0.5193	–	–	–	5.03
x2 = 0.5261	921.85	917.81	913.76	–
x2 = 0.5871	–	–	–	3.98
x2 = 0.6103	900.63	896.55	892.41	–
x2 = 0.677	882.99	878.84	874.69	–
x2 = 0.678	–	–	–	2.9
x2 = 0.7554	–	–	–	2.23
x2 = 0.7613	859.54	855.37	851.13	–
x2 = 0.8185	–	–	–	1.8
x2 = 0.8332	838.49	834.25	829.99	–
x2 = 0.9171	–	–	–	1.29
x2 = 0.9232	810.57	806.3	801.98	–

CCO [ethanol] + CC(O)CO
[4], x1 = 1
Settings	mass density [kg/m3]
298.15 K	785.18
303.15 K	780.87
308.15 K	776.52

CO [methanol]
Settings	refractive index
[1]	1.327

[2]
Settings	mass density [kg/m3]	viscosity [mPa·s]
298.15 K	786.57	–
303.15 K	781.85	0.525
308.15 K	777.1	–

CC(O)CO (stereo not drawn) [1,2-propanediol] + CO
[3]
Settings	refractive index
x2 = 0.0688	1.4262
x2 = 0.1545	1.422
x2 = 0.2606	1.4155
x2 = 0.3086	1.4129
x2 = 0.3666	1.4096
x2 = 0.4494	1.4029
x2 = 0.51	1.3983
x2 = 0.6098	1.3883
x2 = 0.6811	1.3783
x2 = 0.7687	1.3665
x2 = 0.8363	1.3571
x2 = 0.9225	1.3404

[4]
Settings	mass density, 298.15 K [kg/m3]	mass density, 303.15 K [kg/m3]	mass density, 308.15 K [kg/m3]	viscosity, 303.15 K [mPa·s]
x2 = 0	1032.61	1028.9	1025.16	–
x2 = 0.0533	1026.26	1022.52	1018.75	–
x2 = 0.0688	–	–	–	25.51
x2 = 0.1319	1016.21	1012.45	1008.64	–
x2 = 0.1545	–	–	–	18.49
x2 = 0.2246	1003.13	999.31	995.47	–
x2 = 0.2606	–	–	–	12.31
x2 = 0.282	994.24	990.39	986.48	–
x2 = 0.3086	–	–	–	10.21
x2 = 0.3666	–	–	–	8.11
x2 = 0.3841	976.76	972.84	968.91	–
x2 = 0.4494	–	–	–	5.81
x2 = 0.4496	964.21	960.26	956.25	–
x2 = 0.51	–	–	–	4.54
x2 = 0.53	947.16	943.12	939.07	–
x2 = 0.6083	928.51	924.41	920.25	–
x2 = 0.6098	–	–	–	2.99
x2 = 0.6811	–	–	–	2.21
x2 = 0.7006	903.39	899.17	894.96	–
x2 = 0.7601	884.96	880.67	876.35	–
x2 = 0.7687	–	–	–	1.51
x2 = 0.8363	–	–	–	1.11
x2 = 0.8454	855.03	850.61	846.16	–
x2 = 0.9133	827.35	823.02	818.45	–
x2 = 0.9225	–	–	–	0.75

CO [methanol] + CC(O)CO
[4], x1 = 1
Settings	mass density [kg/m3]
298.15 K	786.57
303.15 K	781.85
308.15 K	777.1
